The source made the active and inactive calls.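 How the source made its calls: active means EC50 at or below 10 µM; inactive means the rest.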
molecular target: cAMP-dependent protein kinase type II-beta regulatory subunit (Homo sapiens) + cAMP-dependent protein kinase catalytic subunit beta (Mus musculus) (UniProt P31323+P68181); assay: compounds dissociating PKAc from R2B subunit – biochemical, fluorescence polarization, powder samples, late-stage follow-up (AID 588841); conditions: PKA-R2B holoenzyme dissociation, Cy5-IP20 fluorescence polarization

EC50 | SMILES
> 100 µM (inactive) | O=C(O)c1sccc1NC(=O)c1c(Cl)cccc1Cl
> 100 µM (inactive) | Cc1csc(C(=O)O)c1NC(=O)c1ccc(F)cc1
> 100 µM (inactive) | CC(C)(C)c1ccc(COc2ccsc2C(=O)O)cc1
> 100 µM (inactive) | O=C(O)c1sc2ncccc2c1OCc1ccccc1
> 100 µM (inactive) | COC(=O)c1sc2ncccc2c1OCc1ccc(Cl)cc1Cl
> 100 µM (inactive) | COC(=O)c1sc2ncccc2c1OCc1ccccc1Cl
> 100 µM (inactive) | Cc1ccc(COc2ccsc2C(=O)O)cc1
> 100 µM (inactive) | O=C(O)c1sccc1SCc1ccc(Cl)cc1Cl
> 100 µM (inactive) | O=C(O)c1sccc1SCc1ccc(Cl)c(Cl)c1

From PubChem BioAssay AID588841 (The Scripps Research Institute Molecular Screening Center, 2011)
